Among the test systems are SNB-75 CNS; UACC-62 melanoma; T-47D breast; SF-295 CNS; TK-10 renal; CAKI-1 renal; RPMI-8226 leukemia; SN12C renal; A549 NSCLC; SK-MEL-5 melanoma.
Holding throughout (test): NCI anticancer screen, dose series, 48 h

Where “and” joins values, the source holds several entries; their conditions need not be identical. Equal values may be shown once.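 The compound was tested at five concentrations on cells cultured in 96-well plates, with a 48-hour exposure period. At the GI50, growth is halved. The concentration for full growth arrest is given as TGI.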

This passage reports GI50 and TGI results from PubChem BioAssay (NCI).

Take `CN1CCN(CCc2cccc(C(=O)c3cnn(-c4ccc(F)cc4)c3N)c2)CC1`: the GI50 in the assay on SNB-75 CNS, in the assay on UACC-62 melanoma, in the assay on T-47D breast, in the assay with SF-295 CNS, in the assay with TK-10 renal and in the assay with CAKI-1 renal was above 25 µM in each case. Further, the GI50 in the assay with RPMI-8226 leukemia, with SN12C renal, in the assay on A549 NSCLC and in the assay on SK-MEL-5 melanoma was above 25 µM each time. For the same compound, the TGI with SNB-75 CNS, in the assay on UACC-62 melanoma, with T-47D breast, in the assay on SF-295 CNS, in the assay on TK-10 renal and in the assay with CAKI-1 renal was above 25 µM in each case. In addition, the TGI with RPMI-8226 leukemia, in the assay on SN12C renal, in the assay on A549 NSCLC and in the assay with SK-MEL-5 melanoma was above 25 µM each time.

Regarding `COc1ccc(N2C(C)=C(C#N)C34C(=O)N(c5ccccc5)C(=O)C3=C(O)C=CC24O)cc1` (stereo not drawn), the GI50 in the assay on SNB-75 CNS is 14.8 µM; with UACC-62 melanoma it was 5.06 µM; in the assay with T-47D breast it was 13 µM; in the assay with SF-295 CNS it was 3.49 µM; in the assay with TK-10 renal it was 21.5 µM; in the assay on CAKI-1 renal it was 2.65 µM. The GI50 with RPMI-8226 leukemia was 3.44 µM; with SN12C renal, 10 µM; with A549 NSCLC, 26.3 µM; in the assay with SK-MEL-5 melanoma, 11.4 µM. The TGI in the assay on SNB-75 CNS was found to be 44.5 µM; with UACC-62 melanoma, 18.7 µM; in the assay with T-47D breast, 33.8 µM; with SF-295 CNS, 15.1 µM; in the assay on TK-10 renal, 89 µM; with CAKI-1 renal, 16.6 µM. Besides, the TGI in the assay on RPMI-8226 leukemia was 19.3 µM; in the assay on SN12C renal it was 21.9 µM; with A549 NSCLC it was above 100 µM; in the assay on SK-MEL-5 melanoma, 28.2 µM.

For `CNC(=O)c1cncc(/C=C/c2ccccc2C)c1`, the GI50 was above 20.7 µM in the assay with SNB-75 CNS; above 25 µM in the assay with UACC-62 melanoma; above 25 µM with T-47D breast; above 25 µM with SF-295 CNS; above 25 µM with TK-10 renal; above 25 µM with CAKI-1 renal. For the same compound, the GI50 in the assay on RPMI-8226 leukemia, in the assay with SN12C renal, in the assay on A549 NSCLC and in the assay on SK-MEL-5 melanoma was above 25 µM in each case. The TGI in the assay with SNB-75 CNS, in the assay with UACC-62 melanoma, in the assay on T-47D breast, with SF-295 CNS, with TK-10 renal and in the assay on CAKI-1 renal was above 25 µM in each case. In addition, the TGI with RPMI-8226 leukemia, in the assay on SN12C renal, in the assay with A549 NSCLC and in the assay with SK-MEL-5 melanoma was above 25 µM each time.

For `COc1cc(C2c3cc4c(cc3[C@@H](Nc3ccc(C#N)cc3)C3COC(=O)[C@H]23)OCO4)cc(OC)c1O` (stereo partly drawn), the GI50 in the assay with SNB-75 CNS is 0.787 µM; in the assay with UACC-62 melanoma it was 0.783 µM; in the assay with T-47D breast it was 0.46 µM; in the assay on SF-295 CNS it was 0.336 µM; in the assay with TK-10 renal, 1.62 µM; in the assay on CAKI-1 renal it was 0.228 µM. Further, the GI50 with RPMI-8226 leukemia is 0.869 µM and 1.33 µM; in the assay on SN12C renal it was 1.91 µM and 0.728 µM; with A549 NSCLC it was 0.107 µM; in the assay on SK-MEL-5 melanoma, 0.911 µM and 0.54 µM. The TGI with SNB-75 CNS was 42.6 µM and 56.3 µM; in the assay on UACC-62 melanoma it was 9.01 µM and 14.1 µM; in the assay on SF-295 CNS, 8.74 µM and 3.65 µM; in the assay on TK-10 renal it was 17.4 µM and 4.49 µM; with CAKI-1 renal, 4.37 µM and 2.52 µM; in the assay on RPMI-8226 leukemia it was 1.42 µM and 3.87 µM and 4.73 µM. Besides, the TGI is 6.1 µM and 2.35 µM and 2.96 µM with A549 NSCLC; 4.68 µM and 2.68 µM and 2.06 µM in the assay with SK-MEL-5 melanoma.

Regarding `COC1(C(=O)N[C@@H](C)c2ccc(-n3cc(F)cn3)nc2)CCC(c2nc(C)cc(Nc3cc(C)[nH]n3)n2)CC1` (stereo partly drawn), the GI50 in the assay on SNB-75 CNS was 0.196 µM; in the assay on UACC-62 melanoma it was 4.14 µM; in the assay with T-47D breast, 2.17 µM; in the assay with SF-295 CNS, 1.17 µM; with TK-10 renal it was 1.96 µM; in the assay on CAKI-1 renal it was 0.889 µM. Moreover, the GI50 is 7.18 µM in the assay with RPMI-8226 leukemia, 0.581 µM with SN12C renal, 1.78 µM in the assay with A549 NSCLC and 3.18 µM in the assay with SK-MEL-5 melanoma. Moreover, the TGI was 0.848 µM in the assay on SNB-75 CNS; 17.4 µM in the assay with UACC-62 melanoma; 21.7 µM with T-47D breast; 3.95 µM with SF-295 CNS; 8.97 µM with TK-10 renal; 2.23 µM in the assay on CAKI-1 renal. Besides, the TGI in the assay on RPMI-8226 leukemia was 40 µM; in the assay with SN12C renal, 12.4 µM; with A549 NSCLC, 16.3 µM; in the assay with SK-MEL-5 melanoma, 10.4 µM.

Turning to `CC(C)(C)C[C@H]1NC(C(=O)NCC[C@H](O)CO)[C@H](c2cccc(Cl)c2)[C@@]12C(=O)Nc1cc(Cl)c(F)cc12` (stereo partly drawn), the GI50 with SNB-75 CNS is 14.1 µM; in the assay with UACC-62 melanoma it was 1.6 µM; in the assay with T-47D breast, 16.7 µM; in the assay on SF-295 CNS, 13.4 µM; in the assay with TK-10 renal it was 19.2 µM; with CAKI-1 renal, 3.84 µM. Moreover, the GI50 is 12.8 µM with RPMI-8226 leukemia, 19.8 µM in the assay on SN12C renal, 3.13 µM with A549 NSCLC and 6.73 µM in the assay with SK-MEL-5 melanoma. In addition, the TGI in the assay with SNB-75 CNS was 29.9 µM; in the assay on UACC-62 melanoma, 15.8 µM; with T-47D breast, 37.7 µM; in the assay on SF-295 CNS, 28.1 µM; with TK-10 renal, 39.5 µM; in the assay with CAKI-1 renal it was 18.1 µM. Also, the TGI in the assay on RPMI-8226 leukemia came to 38.4 µM; in the assay on SN12C renal, 46.8 µM; with A549 NSCLC it was 17.4 µM; in the assay with SK-MEL-5 melanoma, 20 µM.

Take `Cc1ccc2c(ccc3c[n+]4c5ccccc5ccc4n32)c1`: the GI50 was 1.18 µM with SNB-75 CNS; 0.795 µM in the assay with UACC-62 melanoma; 0.618 µM with T-47D breast; 1.56 µM with SF-295 CNS; 4.11 µM with TK-10 renal; 8.25 µM in the assay with CAKI-1 renal. Further, the GI50 in the assay on RPMI-8226 leukemia is 2.72 µM; in the assay with SN12C renal it was 0.297 µM; with A549 NSCLC, 0.663 µM; in the assay with SK-MEL-5 melanoma, 1.01 µM. In addition, the TGI was 8.05 µM in the assay on SNB-75 CNS; 2.32 µM in the assay on UACC-62 melanoma; 3.59 µM with T-47D breast; 6.91 µM in the assay with SF-295 CNS; 25.1 µM with TK-10 renal; above 100 µM with CAKI-1 renal. Moreover, the TGI is 18.8 µM with RPMI-8226 leukemia, 2.5 µM with SN12C renal, 13.7 µM in the assay with A549 NSCLC and 2.33 µM in the assay on SK-MEL-5 melanoma.
